Patent publication US20230017045A1, “PYRIDINE AND PYRIMIDINE CARBOXYLATE HERBICIDES AND METHODS OF USE THEREOF” (Dow AgroSciences LLC, priority 2017, published 2023)

The compounds below were run on test plant species (assay: Post-emergent herbicidal activity test (greenhouse, foliar spray, visual growth reduction)). Conditions: post-emergence, 336 h, ECHCG: barnyardgrass (Echinochloa crus-galli), 140 g ai/ha, 14 days after application, read-out: Visual Growth Reduction (%) 14 Days After Application, ECHCG.
Assay type: in vivo
Method in brief: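 Greenhouse plants at first–second true leaf stage sprayed overhead at 187 L/ha with compound in acetone/water/isopropanol/DMSO/crop oil/X-77 carrier; controls received solvent blank. Injury rated visually after 14 d on a 0–100% scale versus untreated and control plants, converted to growth reduction.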

Question: How did the pest or weed control at 140 g/ha turn out when C=Cc1cc(C(F)(F)F)cc(Cl)c1-c1ccc(Cl)c(C(=O)OC)n1 [F216, methyl 3-chloro-6-(2-chloro-4-(trifluoromethyl)-6-vinylphenyl)picolinate] was run?
Answer: Its pest or weed control at 140 g/ha is 0 to 29%.

Question: How did the pest or weed control at 140 g/ha turn out when COC(=O)c1nc(-c2ccc(C(F)(F)F)c(F)c2)ccc1Cl [F306, Methyl 3-chloro-6-(3-fluoro-4-(trifluoromethyl)phenyl)picolinate] was run?
Answer: The pest or weed control at 140 g/ha was 0 to 29%.

Same assay, conditions: post-emergence, 336 h, IPOHE: ivy-leaf morning glory (Ipomoea hederacea), 140 g ai/ha, 14 days after application, read-out: Visual Growth Reduction (%) 14 Days After Application, IPOHE

Question: C=Cc1cc(C(F)(F)F)cc(Cl)c1-c1ccc(Cl)c(C(=O)OC)n1 [F216, methyl 3-chloro-6-(2-chloro-4-(trifluoromethyl)-6-vinylphenyl)picolinate] was tested. Which pest or weed control at 140 g/ha did it give?
Answer: The pest or weed control at 140 g/ha was 95 to 100%.

Question: How did the pest or weed control at 140 g/ha turn out when COC(=O)c1nc(-c2ccc(C(F)(F)F)c(F)c2)ccc1Cl [F306, Methyl 3-chloro-6-(3-fluoro-4-(trifluoromethyl)phenyl)picolinate] was run?
Answer: Its pest or weed control at 140 g/ha is 95 to 100%.

Same assay, conditions: post-emergence, 336 h, KCHSC: kochia (Bassia scoparia), 140 g ai/ha, 14 days after application, read-out: Visual Growth Reduction (%) 14 Days After Application, KCHSC

Question: How did the pest or weed control at 140 g/ha turn out when C=Cc1cc(C(F)(F)F)cc(Cl)c1-c1ccc(Cl)c(C(=O)OC)n1 [F216, methyl 3-chloro-6-(2-chloro-4-(trifluoromethyl)-6-vinylphenyl)picolinate] was run?
Answer: Its pest or weed control at 140 g/ha is 30 to 44%.

Question: How did the pest or weed control at 140 g/ha turn out when COC(=O)c1nc(-c2ccc(C(F)(F)F)c(F)c2)ccc1Cl [F306, Methyl 3-chloro-6-(3-fluoro-4-(trifluoromethyl)phenyl)picolinate] was run?
Answer: The pest or weed control at 140 g/ha was 0 to 29%.

Same assay, conditions: post-emergence, 336 h, ORYSA: rice (Oryza sativa), 140 g ai/ha, 14 days after application, read-out: Visual Growth Reduction (%) 14 Days After Application, ORYSA

Question: Which pest or weed control at 140 g/ha does the source give for C=Cc1cc(C(F)(F)F)cc(Cl)c1-c1ccc(Cl)c(C(=O)OC)n1 [F216, methyl 3-chloro-6-(2-chloro-4-(trifluoromethyl)-6-vinylphenyl)picolinate] here?
Answer: The pest or weed control at 140 g/ha was 0 to 29%.

Question: COC(=O)c1nc(-c2ccc(C(F)(F)F)c(F)c2)ccc1Cl [F306, Methyl 3-chloro-6-(3-fluoro-4-(trifluoromethyl)phenyl)picolinate] was tested. Which pest or weed control at 140 g/ha did it give?
Answer: The pest or weed control at 140 g/ha was 0 to 29%.

Same assay, conditions: post-emergence, 336 h, SETFA: giant foxtail (Setaria faberi), 140 g ai/ha, 14 days after application, read-out: Visual Growth Reduction (%) 14 Days After Application, SETFA

Question: Which pest or weed control at 140 g/ha does the source give for C=Cc1cc(C(F)(F)F)cc(Cl)c1-c1ccc(Cl)c(C(=O)OC)n1 [F216, methyl 3-chloro-6-(2-chloro-4-(trifluoromethyl)-6-vinylphenyl)picolinate] here?
Answer: Its pest or weed control at 140 g/ha is 60 to 74%.

Question: Which pest or weed control at 140 g/ha does the source give for COC(=O)c1nc(-c2ccc(C(F)(F)F)c(F)c2)ccc1Cl [F306, Methyl 3-chloro-6-(3-fluoro-4-(trifluoromethyl)phenyl)picolinate] here?
Answer: The pest or weed control at 140 g/ha was 0 to 29%.

Same assay, conditions: post-emergence, 336 h, SORVU: grain sorghum (Sorghum vulgare), 140 g ai/ha, 14 days after application, read-out: Visual Growth Reduction (%) 14 Days After Application, SORVU

Question: Which pest or weed control at 140 g/ha does the source give for C=Cc1cc(C(F)(F)F)cc(Cl)c1-c1ccc(Cl)c(C(=O)OC)n1 [F216, methyl 3-chloro-6-(2-chloro-4-(trifluoromethyl)-6-vinylphenyl)picolinate] here?
Answer: Its pest or weed control at 140 g/ha is 60 to 74%.

Question: Which pest or weed control at 140 g/ha does the source give for COC(=O)c1nc(-c2ccc(C(F)(F)F)c(F)c2)ccc1Cl [F306, Methyl 3-chloro-6-(3-fluoro-4-(trifluoromethyl)phenyl)picolinate] here?
Answer: Its pest or weed control at 140 g/ha is 60 to 74%.

Same assay, conditions: post-emergence, 336 h, STEME: common chickweed (Stellaria media), 140 g ai/ha, 14 days after application, read-out: Visual Growth Reduction (%) 14 Days After Application, STEME

Question: For C=Cc1cc(C(F)(F)F)cc(Cl)c1-c1ccc(Cl)c(C(=O)OC)n1 [F216, methyl 3-chloro-6-(2-chloro-4-(trifluoromethyl)-6-vinylphenyl)picolinate], which pest or weed control at 140 g/ha is on record?
Answer: Its pest or weed control at 140 g/ha is 0 to 29%.

Question: How did the pest or weed control at 140 g/ha turn out when COC(=O)c1nc(-c2ccc(C(F)(F)F)c(F)c2)ccc1Cl [F306, Methyl 3-chloro-6-(3-fluoro-4-(trifluoromethyl)phenyl)picolinate] was run?
Answer: The pest or weed control at 140 g/ha was 0 to 29%.

Same assay, conditions: post-emergence, 336 h, TRZAS: wheat, spring (Triticum aestivum), 140 g ai/ha, 14 days after application, read-out: Visual Growth Reduction (%) 14 Days After Application, TRZAS

Question: With C=Cc1cc(C(F)(F)F)cc(Cl)c1-c1ccc(Cl)c(C(=O)OC)n1 [F216, methyl 3-chloro-6-(2-chloro-4-(trifluoromethyl)-6-vinylphenyl)picolinate] as the compound, how does the pest or weed control at 140 g/ha read?
Answer: Its pest or weed control at 140 g/ha is 45 to 59%.

Question: For COC(=O)c1nc(-c2ccc(C(F)(F)F)c(F)c2)ccc1Cl [F306, Methyl 3-chloro-6-(3-fluoro-4-(trifluoromethyl)phenyl)picolinate], which pest or weed control at 140 g/ha is on record?
Answer: Its pest or weed control at 140 g/ha is 0 to 29%.

Same assay, conditions: post-emergence, 336 h, blackgrass (Alopecurus myosuroides), 14 Days After Application, 140 g ai/ha, read-out: Visual Growth Reduction (%) ALOMY

Question: With C=Cc1cc(C(F)(F)F)cc(Cl)c1-c1ccc(Cl)c(C(=O)OC)n1 [F216, methyl 3-chloro-6-(2-chloro-4-(trifluoromethyl)-6-vinylphenyl)picolinate] as the compound, how does the pest or weed control at 140 g/ha read?
Answer: Its pest or weed control at 140 g/ha is 0 to 29%.

Question: With COC(=O)c1nc(-c2ccc(C(F)(F)F)c(F)c2)ccc1Cl [F306, Methyl 3-chloro-6-(3-fluoro-4-(trifluoromethyl)phenyl)picolinate] as the compound, how does the pest or weed control at 140 g/ha read?
Answer: Its pest or weed control at 140 g/ha is 0 to 29%.

Same assay, conditions: post-emergence, 336 h, canada thistle (Cirsium arvense), 14 Days After Application, 140 g ai/ha, read-out: Visual Growth Reduction (%) CIRAR

Question: For C=Cc1cc(C(F)(F)F)cc(Cl)c1-c1ccc(Cl)c(C(=O)OC)n1 [F216, methyl 3-chloro-6-(2-chloro-4-(trifluoromethyl)-6-vinylphenyl)picolinate], which pest or weed control at 140 g/ha is on record?
Answer: The pest or weed control at 140 g/ha was 60 to 74%.

Question: With COC(=O)c1nc(-c2ccc(C(F)(F)F)c(F)c2)ccc1Cl [F306, Methyl 3-chloro-6-(3-fluoro-4-(trifluoromethyl)phenyl)picolinate] as the compound, how does the pest or weed control at 140 g/ha read?
Answer: The pest or weed control at 140 g/ha was 0 to 29%.

Same assay, conditions: post-emergence, 336 h, crabgrass (Digitaria sanguinalis), 14 Days After Application, 140 g ai/ha, read-out: Visual Growth Reduction (%) DIGSA

Question: For C=Cc1cc(C(F)(F)F)cc(Cl)c1-c1ccc(Cl)c(C(=O)OC)n1 [F216, methyl 3-chloro-6-(2-chloro-4-(trifluoromethyl)-6-vinylphenyl)picolinate], which pest or weed control at 140 g/ha is on record?
Answer: Its pest or weed control at 140 g/ha is 0 to 29%.

Question: How did the pest or weed control at 140 g/ha turn out when COC(=O)c1nc(-c2ccc(C(F)(F)F)c(F)c2)ccc1Cl [F306, Methyl 3-chloro-6-(3-fluoro-4-(trifluoromethyl)phenyl)picolinate] was run?
Answer: Its pest or weed control at 140 g/ha is 75 to 84%.

Same assay, conditions: post-emergence, 336 h, lambsquarters (Chenopodium album), 14 Days After Application, 140 g ai/ha, read-out: Visual Growth Reduction (%) CHEAL

Question: C=Cc1cc(C(F)(F)F)cc(Cl)c1-c1ccc(Cl)c(C(=O)OC)n1 [F216, methyl 3-chloro-6-(2-chloro-4-(trifluoromethyl)-6-vinylphenyl)picolinate] was tested. Which pest or weed control at 140 g/ha did it give?
Answer: The pest or weed control at 140 g/ha was 95 to 100%.

Question: Which pest or weed control at 140 g/ha does the source give for COC(=O)c1nc(-c2ccc(C(F)(F)F)c(F)c2)ccc1Cl [F306, Methyl 3-chloro-6-(3-fluoro-4-(trifluoromethyl)phenyl)picolinate] here?
Answer: The pest or weed control at 140 g/ha was 0 to 29%.

Same assay, conditions: post-emergence, 336 h, redroot pigweed (Amaranthus retroflexus), 14 Days After Application, 140 g ai/ha, read-out: Visual Growth Reduction (%) AMARE

Question: How did the pest or weed control at 140 g/ha turn out when C=Cc1cc(C(F)(F)F)cc(Cl)c1-c1ccc(Cl)c(C(=O)OC)n1 [F216, methyl 3-chloro-6-(2-chloro-4-(trifluoromethyl)-6-vinylphenyl)picolinate] was run?
Answer: Its pest or weed control at 140 g/ha is 30 to 44%.

Question: COC(=O)c1nc(-c2ccc(C(F)(F)F)c(F)c2)ccc1Cl [F306, Methyl 3-chloro-6-(3-fluoro-4-(trifluoromethyl)phenyl)picolinate] was tested. Which pest or weed control at 140 g/ha did it give?
Answer: The pest or weed control at 140 g/ha was 30 to 44%.

Same assay, conditions: post-emergence, 336 h, wild oat (Avena fatua), 14 Days After Application, 140 g ai/ha, read-out: Visual Growth Reduction (%) AVEFA

Question: With C=Cc1cc(C(F)(F)F)cc(Cl)c1-c1ccc(Cl)c(C(=O)OC)n1 [F216, methyl 3-chloro-6-(2-chloro-4-(trifluoromethyl)-6-vinylphenyl)picolinate] as the compound, how does the pest or weed control at 140 g/ha read?
Answer: The pest or weed control at 140 g/ha was 0 to 29%.

Question: For COC(=O)c1nc(-c2ccc(C(F)(F)F)c(F)c2)ccc1Cl [F306, Methyl 3-chloro-6-(3-fluoro-4-(trifluoromethyl)phenyl)picolinate], which pest or weed control at 140 g/ha is on record?
Answer: The pest or weed control at 140 g/ha was 0 to 29%.

Same assay, conditions: post-emergence, 336 h, yellow nutsedge (Cyperus esculentus), 14 Days After Application, 140 g ai/ha, read-out: Visual Growth Reduction (%) CYPES

Question: With C=Cc1cc(C(F)(F)F)cc(Cl)c1-c1ccc(Cl)c(C(=O)OC)n1 [F216, methyl 3-chloro-6-(2-chloro-4-(trifluoromethyl)-6-vinylphenyl)picolinate] as the compound, how does the pest or weed control at 140 g/ha read?
Answer: The pest or weed control at 140 g/ha was 0 to 29%.

Question: How did the pest or weed control at 140 g/ha turn out when COC(=O)c1nc(-c2ccc(C(F)(F)F)c(F)c2)ccc1Cl [F306, Methyl 3-chloro-6-(3-fluoro-4-(trifluoromethyl)phenyl)picolinate] was run?
Answer: Its pest or weed control at 140 g/ha is 45 to 59%.
